The record followed here is US6323196A, “Galanthamine derivatives as acetylcholinesterase inhibitors” (priority 1993, dated 2001).

The structures appear in SMILES notation. Structures can show the parent of a compound that is named as a salt. Where two headings read alike, the source gives them in different places.

One test deals with acetylcholinesterase (Homo sapiens, UniProt P22303). The test is described as follows: Acetylcholinesterase Inhibition Assay (photometric method). The test is classed as biochemical.
The subject of a further test is mice. The test is classed as in vivo. Particulars: SDDA; dose 0.003 mg/kg, s.c.; retest after 24 hours. Here is the method:
This utility can also be ascertained by determining the ability of these compounds to restore cholinergically deficient memory in the Dark Avoidance Assay. In this assay mice are tested for their ability to remember an unpleasant stimulus for a period of 24 hours. A mouse is placed in a chamber that contains a dark compartment; a strong incandescent light drives it to the dark compartment, where arn electric shock is administered through metal plates on the floor. The animal is removed from the testing apparatus and tested again, 24 hours later, for the ability to remember the electric shock.
If scopolamine, an anticholinergic that is known to cause memory impairment, is administered before an animal's initial exposure to the test chamber, the animal re-enters the dark compartment shortly after being placed in the test chamber 24 hours later. This effect of scopolamine is blocked by an active test compounds, resulting in a greater interval before re-entry into the dark compartment.
The test results are expressed as the percent of a group of animals in which the effect of scopolanine is blocked, as manifested by an increased interval between being placed in the test chamber and re-entering the dark compartment. Results of Dark Avoidance Assay for some of the compounds of this invention are presented in Table II along with a result for a reference compounds.

Chain of acetylcholinesterase (P22303 32-614): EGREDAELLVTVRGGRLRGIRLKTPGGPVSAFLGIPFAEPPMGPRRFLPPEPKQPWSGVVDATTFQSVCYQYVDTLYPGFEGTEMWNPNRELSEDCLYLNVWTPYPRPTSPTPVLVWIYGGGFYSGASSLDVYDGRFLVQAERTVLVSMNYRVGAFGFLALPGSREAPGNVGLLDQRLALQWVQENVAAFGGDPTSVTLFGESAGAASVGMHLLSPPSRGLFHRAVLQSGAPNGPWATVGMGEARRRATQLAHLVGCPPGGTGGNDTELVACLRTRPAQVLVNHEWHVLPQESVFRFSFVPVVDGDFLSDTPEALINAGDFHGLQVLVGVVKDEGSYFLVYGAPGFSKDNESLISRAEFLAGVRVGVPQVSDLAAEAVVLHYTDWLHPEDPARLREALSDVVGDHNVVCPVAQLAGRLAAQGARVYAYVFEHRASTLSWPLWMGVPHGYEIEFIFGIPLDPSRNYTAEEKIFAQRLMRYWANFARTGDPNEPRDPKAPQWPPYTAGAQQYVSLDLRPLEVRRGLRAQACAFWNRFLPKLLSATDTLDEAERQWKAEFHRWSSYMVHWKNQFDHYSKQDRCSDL

In general, IC50 refers to the concentration needed to halve the response being measured. `CNC(=O)Oc1ccc2c3c1O[C@H]1C[C@@H](OC(=O)C(C)C)C=C[C@@]31CCN(C)C2` [6-O-Demethy-6-O-(methylaminocarbonyl)-3-O-(propan-2-yl-carbonyl)galanthamine Hydrochloride]: inhibition against acetylcholinesterase was half-maximal at 0.047 µM (IC50).

In the case of `CNC(=O)Oc1ccc2c3c1O[C@H]1C[C@@H](O)C=C[C@@]31CCN(C)C2` [6-O-Demethyl-6-O-(methylaminocarbonyl)galanthamine], the “Percent of Animals with Scopolamine Induced Memory Deficit Reversal” value in the test with mice was 27%. Also, on acetylcholinesterase (photometric method, read-out: IC50 CHE I (acetylcholinesterase inhibition)), the IC50 was 0.002 µM.
